Patent US20240082347A1, “TREATMENT OF CORONAVIRUS” (priority 2021, published 2024)
Entries after “also recorded” stand apart in the source; their conditions may differ.

Assays:
[1] = system: SARS-CoV-2 binding to Human Aortic Endothelial Cells (HAoEC); assay type: cell-based
[2] = target: T1, Recombinant integrin αVβ3 (binding of SARS-CoV-2 spike protein) (Homo sapiens, UniProt P05106+P06756); test: Fluorescent-based protein interaction assay, spike protein and αVβ3; details: FIG. 8
T1 construct: purchased BioTechne 3050-AV-050
T1 sequence (P06756 31-992 limits assumed): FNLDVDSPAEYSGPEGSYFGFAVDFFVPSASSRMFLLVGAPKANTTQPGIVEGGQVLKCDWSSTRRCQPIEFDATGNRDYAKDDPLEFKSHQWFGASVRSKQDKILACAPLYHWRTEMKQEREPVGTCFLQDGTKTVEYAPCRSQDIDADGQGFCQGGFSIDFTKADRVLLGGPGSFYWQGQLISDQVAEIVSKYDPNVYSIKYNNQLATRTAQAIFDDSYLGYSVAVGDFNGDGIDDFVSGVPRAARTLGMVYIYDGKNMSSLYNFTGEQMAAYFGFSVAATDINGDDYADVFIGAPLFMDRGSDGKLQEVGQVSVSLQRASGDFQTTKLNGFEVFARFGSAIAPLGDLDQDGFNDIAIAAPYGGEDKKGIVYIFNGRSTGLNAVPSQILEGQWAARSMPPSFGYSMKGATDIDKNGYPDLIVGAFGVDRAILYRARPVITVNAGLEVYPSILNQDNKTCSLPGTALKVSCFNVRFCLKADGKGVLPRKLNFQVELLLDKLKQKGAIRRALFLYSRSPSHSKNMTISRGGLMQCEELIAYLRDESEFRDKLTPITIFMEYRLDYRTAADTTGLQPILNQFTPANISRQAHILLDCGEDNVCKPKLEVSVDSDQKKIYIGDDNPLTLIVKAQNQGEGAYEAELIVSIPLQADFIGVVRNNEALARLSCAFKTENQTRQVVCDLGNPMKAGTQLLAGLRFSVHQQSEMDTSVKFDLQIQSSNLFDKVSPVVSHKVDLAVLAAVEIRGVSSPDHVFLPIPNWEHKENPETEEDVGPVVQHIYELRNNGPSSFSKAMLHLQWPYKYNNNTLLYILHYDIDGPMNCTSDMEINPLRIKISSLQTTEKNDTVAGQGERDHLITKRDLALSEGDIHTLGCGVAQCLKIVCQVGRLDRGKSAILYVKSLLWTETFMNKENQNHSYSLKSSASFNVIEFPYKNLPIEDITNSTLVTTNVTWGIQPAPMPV
T1 sequence (P05106 27-718 limits assumed): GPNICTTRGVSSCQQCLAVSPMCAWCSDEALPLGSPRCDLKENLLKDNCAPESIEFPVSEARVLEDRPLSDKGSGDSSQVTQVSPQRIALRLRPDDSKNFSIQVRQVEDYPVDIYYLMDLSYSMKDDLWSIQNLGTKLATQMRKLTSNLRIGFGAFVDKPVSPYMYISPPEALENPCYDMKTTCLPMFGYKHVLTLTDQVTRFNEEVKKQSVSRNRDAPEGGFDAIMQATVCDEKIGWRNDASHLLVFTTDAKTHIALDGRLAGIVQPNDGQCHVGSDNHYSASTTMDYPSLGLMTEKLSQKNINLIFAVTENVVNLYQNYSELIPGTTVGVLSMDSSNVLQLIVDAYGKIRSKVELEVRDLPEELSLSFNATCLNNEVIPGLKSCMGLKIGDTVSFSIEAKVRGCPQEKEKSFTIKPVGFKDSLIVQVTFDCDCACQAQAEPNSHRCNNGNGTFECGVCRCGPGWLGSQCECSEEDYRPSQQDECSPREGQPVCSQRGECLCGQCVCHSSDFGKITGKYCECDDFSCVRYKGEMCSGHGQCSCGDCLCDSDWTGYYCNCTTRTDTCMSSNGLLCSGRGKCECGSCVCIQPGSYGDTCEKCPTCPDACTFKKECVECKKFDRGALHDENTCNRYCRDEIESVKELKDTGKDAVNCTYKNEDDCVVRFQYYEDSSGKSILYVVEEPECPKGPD

[3] = system: VE-Cadherin in endothelial cells; test: SDS-PAGE and Western blot of VE-Cadherin after ex vivo infection assay; assay type: cell-based, human; details: healthy, infected and treated cells; 0.0005 μM
Procedure: Following the ex vivo infection assay, endothelial cells were lysed in RIPA buffer and stored at −20° C. until use. Samples were separated on a 10% SDS-PAGE gel. Following this, proteins were transferred onto a nitrocellulose membrane and blocked for 1 hour using 5% skimmed milk. The membrane was probed using anti-VE Cadherin primary antibody (Clone: F-8, Cat. No: sc-9989, 1:200, SantaCruz) and anti-GAPDH primary antibody (6000-4-1 mouse mAB, 1:2000, ProteinTech), overnight at 4° C. Anti-mouse IgG secondary antibodies (sc525405, 1:5000, SantaCruz) were used the following day. Proteins were detected using chemiluminescence.

[4] = system: SARS-CoV-2 binding to human colorectal epithelial cells (Caco-2); assay type: cell-based
[5] = system: VE-Cadherin expression on sheared HAoEC; assay type: cell-based, human; details: 0.0005 μM
sheared HAoEC = test: Transwell permeability assay (FITC-Dextran) after SARS-CoV-2 infection; assay type: cell-based, human; details: 0.0005 μM; SARS-CoV-2 infection 24 hours; FIG. 5A

Row | Compound | viral (SARS-CoV-2) attachment to human vascular endothelial cells [1] | recombinant spike protein binding to integrin αVβ3, comparison of GLPG0187 with Cilengitide [2] | SARS-CoV-2 binding to endothelial cells, dose response [1] | virus (SARS-CoV-2) attachment to human vascular endothelial cells [1] | Total VE-Cadherin [3] | SARS-CoV-2 binding to human colorectal epithelial cells [4] | VE-Cadherin surface expression (mean fluorescence), marker of barrier integrity [5] | internalisation of VE-Cadherin following SARS-CoV-2 infection [5] | endothelial barrier permeability (FITC-Dextran, 40 kDa) (sheared HAoEC)
1 | CNc1cccc(CCOc2ccc3c(c2)CN(CC(F)(F)F)C(=O)[C@H](CC(=O)O)C3)n1 [SB-273005] | failed to inhibit viral (SARS-CoV-2) attachment to human vascular endothelial cells; also recorded: unsuccessful at reducing SARS-CoV-2 binding to human endothelial cells |  |  |  |  |  |  |  | 
2 | COc1ccc(S(=O)(=O)N[C@@H](CNc2nc(C)nc(N3CCC(c4ccc5c(n4)NCCC5)CC3)c2C)C(=O)O)cc1 [GLPG0187] | failed to inhibit viral (SARS-CoV-2) attachment to human vascular endothelial cells | Cilengitide is significantly more effective |  |  |  |  |  |  | 
3 | CC(C)[C@H]1C(=O)N[C@@H](CCCN=C(N)N)C(=O)NCC(=O)N[C@@H](CC(=O)O)C(=O)N[C@H](Cc2ccccc2)C(=O)N1C [Cilengitide, cyclo(-RGDf(NMe)V-)] |  |  | in a dose-dependent manner; also recorded: significantly prevents both attachment to the host and disruption of barrier integrity; also recorded: Statistical significance was found between the no drug control and each Cilengitide treated group | dose dependently inhibits virus (SARS-CoV-2) attachment to human vascular endothelial cells | Total VE-Cadherin remains consistent | effectively reduces SARS-CoV-2 binding to human colorectal epithelial cells | prevented VE-cadherin reduction during infection; also recorded: returning VE-cadherin levels back to uninfected levels; also recorded: re-established the barrier integrity; also recorded: barrier permeability was restored back to uninfected levels | internalisation of VE-Cadherin is prevented | limited the occurrence of barrier permeability; also recorded: restored after treating cells with Cilengitide
